For this experiment, the target named is T1, FPRL-1 (Homo sapiens, UniProt P25090).
T1 construct: expressed in transfected cells
T1 sequence (P25090 1-351): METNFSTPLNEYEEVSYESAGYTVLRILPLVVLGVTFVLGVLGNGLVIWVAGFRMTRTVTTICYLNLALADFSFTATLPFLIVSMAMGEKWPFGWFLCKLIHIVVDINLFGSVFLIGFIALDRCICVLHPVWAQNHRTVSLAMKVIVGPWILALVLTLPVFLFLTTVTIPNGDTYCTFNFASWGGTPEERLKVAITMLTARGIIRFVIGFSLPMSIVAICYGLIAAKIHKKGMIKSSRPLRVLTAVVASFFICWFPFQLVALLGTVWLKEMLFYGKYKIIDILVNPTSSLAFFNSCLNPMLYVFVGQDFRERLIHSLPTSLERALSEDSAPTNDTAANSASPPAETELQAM
Nature of the experiment: FLIPR Tetra calcium activity assay in CHO-Ga16 cells stably expressing FPRL1. It counts as cell-based. The following applies: compound-induced calcium activity; for EC50: 0.61 to 10,000 nM; for FPRL-1 Ga16-CHO (eff) efficacy: efficacy value in parentheses. The procedure:
CHO-Ga16 cells stably expressing FPRL1 were cultured in (F12, 10% FBS, 1% PSA, 400 μg/ml geneticin and 50 μg/ml hygromycin) and HEK-Gqi5 cells stable expressing FPR1 were cultured in (DMEM high glucose, 10% FBS, 1% PSA, 400 μg/ml geneticin and 50 μg/ml hygromycin). In general, the day before the experiment, 18,000 cells/well were plated in a 384-well clear bottom poly-d-lysine coated plate. The following day the screening compound-induced calcium activity was assayed on the FLIPR^Tetra. The drug plates were prepared in 384-well microplates using the EP3 and the MultiPROBE robotic liquid handling systems. Compounds were tested at concentrations ranging from 0.61 to 10,000 nM. Results are expressed as EC50 (nM) and efficacy values.

Broadly, the EC50 is the concentration that produces a half-maximal response.

As to `COc1cc2c(cc1OC)CN(C(=O)C(CCCCNC(=O)NC1CCCCC1)NC(=O)Nc1ccc(SC)cc1)CC2` (centres unmarked) [Compound 4], the EC50 came out at 59 nM and the “FPRL-1 Ga16-CHO (eff) efficacy” value stood at 0.71.
The matching figures for `COc1cc2c(cc1OC)CN(C(=O)C(CCCCNC(=O)Nc1ccccc1)NC(=O)Nc1ccc(SC)cc1)CC2` (centres unmarked) [Compound 3]: 32 nM and 0.76.
For `COc1cc2c(cc1OC)CN(C(=O)C(CCCCNC(=O)Nc1ccccc1)NC(=O)Nc1ccc(Br)cc1)CC2` (centres unmarked) [Compound 2], the EC50 came to 91 nM and the “FPRL-1 Ga16-CHO (eff) efficacy” value stood at 0.79.
The matching figures for `COc1cc2c(cc1OC)CN(C(=O)C(CCCCNC(=O)c1ccco1)NC(=O)Nc1ccc(C)cc1)CC2` (centres unmarked) [Compound 1]: 143 nM and 0.61.
